Bounds are passed on as bounds.

Experimental findings from US10508077B2 (FORMA Therapeutics, Inc., priority 2015, dated 2019) are described below.

This assay has as its target T1, Full length human recombinant HDAC8 protein (Homo sapiens, UniProt Q9BY41).
T1 construct: Full length human recombinant HDAC8 protein was expressed in baculoviral system; made in house
T1 sequence (Q9BY41 1-377): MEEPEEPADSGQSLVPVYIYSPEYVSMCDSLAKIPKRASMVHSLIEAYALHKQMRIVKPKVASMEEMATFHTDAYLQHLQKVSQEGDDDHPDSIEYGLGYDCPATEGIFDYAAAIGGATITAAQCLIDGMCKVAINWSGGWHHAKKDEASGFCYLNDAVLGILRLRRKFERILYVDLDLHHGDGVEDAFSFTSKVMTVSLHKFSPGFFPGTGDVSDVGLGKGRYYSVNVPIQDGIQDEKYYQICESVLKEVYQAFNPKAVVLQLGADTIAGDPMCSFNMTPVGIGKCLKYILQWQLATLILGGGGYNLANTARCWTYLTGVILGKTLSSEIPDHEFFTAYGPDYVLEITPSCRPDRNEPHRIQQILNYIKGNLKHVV
In words: In vitro histone deacetylase assay: enzymatic HDAC8 assay, electrophoretic mobility shift. The following applies: substrate RHKK(Ac)-NH2, 1 nM enzyme, compounds listed under IC50 range headings. In kind it is biochemical. The method, then: The enzymatic HDAC8 assay was performed using electrophoretic mobility shift assay. Full length human recombinant HDAC8 protein was expressed in baculoviral system and purified by affinity chromatography. The enzymatic reactions were assembled in 384 well plates in a total volume of 25 μL in a reaction buffer composing: 100 mM HEPES, pH7.5, 25 mM KC, 0.1% bovine serum albumin, 0.01% Triton X-100, 1% DMSO (from compounds) 2 μM of the fluorescently labeled peptide substrate and enzyme. The enzyme was added at a final concentration of 1 nM. The peptide substrate RHKK(Ac)-NH2 was used. The compounds were tested at 12 concentrations spaced by 3× dilution intervals. Negative control samples (0%-inhibition in the absence of inhibitor) and positive control samples (100%-inhibition) were assembled in replicates of four in each assay plate. The reactions were incubated at 25° C. and quenched by the addition of 45 μL of termination buffer (100 mM HEPES, pH 7.5, 0.01% Triton X-100, 0.05% SDS).
The terminated assay plates were analyzed on LabChip® 3000 microfluidic electrophoresis instrument (Perkin Elmer/Caliper Life Sciences). The fluorescence intensity of the electrophoretically separated de-acetylated product and substrate peptide was measured. Activity in each sample was determined as the product to sum ratio (PSR): P/(S+P), where P is the peak height of the product peptide and S is the peak height of the substrate peptide. Percent inhibition (Pinh) is determined using the following equation: Pinh=(PSR0%−PSRinh)/(PSR0%−PSR100%)*100, where PSRinh is the product sum ratio in the presence of inhibitor, PSR0% is the average product sum ration in the absence of inhibitor and PSR 100% is the average product sum ratio in 100%-inhibition control samples. The IC50 values of inhibitors were determined by fitting the %-inhibition curves with 4 parameter dose-response model using XLfit 4 software. Ranges of IC50 values for compounds of the invention are disclosed in Table 26.
What is called IC50 is the concentration at which inhibition is half-maximal. For the molecule `NC(=O)C1CCC2(CC1)CCN(c1ccccc1/C=C/C(=O)NO)CC2` [Example I-108, (E)-3-(2-(3-(hydroxyamino)-3-oxoprop-1-en-1-yl)phenyl)-3-azaspiro[5.5]undecane-9-carboxamide], the concentration for half-maximal inhibition (IC50) was below 1000 nM.

As to `CC(C)(C)OC(=O)N1CCCC2(CCN(c3ccccc3/C=C/C(=O)NO)CC2)C1` [Example I-109, tert-butyl (E)-9-(2-(3-(hydroxyamino)-3-oxoprop-1-en-1-yl)phenyl)-2,9-diazaspiro[5.5]undecane-2-carboxylate], the IC50 was below 1000 nM.

As to `O=C(/C=C/c1ccccc1N1CCC2(CCCNC2)CC1)NO` [Example I-110, (E)-3-(2-(2,9-diazaspiro[5.5]undecan-9-yl)phenyl)-N-hydroxyacrylamide 2,2,2-trifluoroacetate], the IC50 is below 1000 nM.

`CC(C)(C)OC(=O)N1CCC2(CC1)CCN(c1ccccc1/C=C/C(=O)NO)C2` [Example I-111, tert-butyl (E)-2-(2-(3-(hydroxyamino)-3-oxoprop-1-en-1-yl)phenyl)-2,8-diazaspiro[4.5]decane-8-carboxylic]: the IC50 is below 1000 nM.

For the molecule `CC(C)(C)OC(=O)N1CCC2(CCN(c3ccccc3/C=C/C(=O)NO)C2)C1` (stereo not shown) [Example I-112, tert-butyl (E)-7-(2-(3-(hydroxyamino)-3-oxoprop-1-en-1-yl)phenyl)-2,7-dizazspiro[4.4]nonane-2-carboxylate], the IC50 is below 1000 nM.

Turning to `O=C(/C=C/c1ccccc1N1CC2(CC(NC(=O)OCc3ccccc3)CS2(=O)=O)C1)NO` (stereo not shown) [Example I-114, benzyl (E)-(2-(2-(3-(hydroxyamino)-3-oxoprop-1-en-1-yl)phenyl)-5,5-dioxido-5-thia-2-azaspiro[3,4]octan-7-yl)carbamate], the IC50 is below 1000 nM.

As to `O=C(/C=C/c1ccccc1NCc1nc2ccc(CCCO)cc2[nH]1)NO` [Example I-116, (E)-N-hydroxy-3-(2-(((6-(3-hydroxypropyl)-1H-benzo[d]imidazol-2-yl)methyl)amino)phenyl)acrylamide], the IC50 was below 1000 nM.

For `NC1CC2(CN(c3ccccc3/C=C/C(=O)NO)C2)S(=O)(=O)C1` (stereo not shown) [Example I-117, (E)-3-(2-(7-amino-5,5-dioxido-5-thia-2-azaspiro[3.4]octan-2-yl)phenyl)-N-hydroxyacrylamide 2,2,2-trifluoroacetate], the IC50 was below 1000 nM.

For the molecule `CC(C)N(C(=O)c1cccc(C(F)(F)F)c1)c1ccccc1/C=C/C(=O)NO` [Example I-118, (E)-N-(2-(3-(hydroxyamino)-3-oxoprop-1-en-1-yl)phenyl)-N-isopropyl-3-(trifluoromethyl)benzamide], the IC50 is below 1000 nM.

Regarding `CN(Cc1cccc(C(F)(F)F)c1)c1ccccc1/C=C/C(=O)NO` [Example I-119, (E)-N-hydroxy-3-(2-(methyl(3-(trifluoromethyl)benzyl)amino)phenyl)acrylamide], the IC50 is below 1000 nM.

`O=C(/C=C/c1ccccc1NCc1ccc(-c2ccccc2)c(C(F)(F)F)c1)NO` [Example I-120, (E)-N-hydroxy-3-(2-(((2-(trifluoromethyl)-[1,1′-biphenyl]-4-yl)methyl)amino)phenyl)acrylamide]: the IC50 is below 1000 nM.

Take `Cn1c(CNc2ccccc2/C=C/C(=O)NO)nc(Cl)c1Cl` [Example I-121, (E)-3-(2-(((4,5-dichloro-1-methyl-1H-imidazol-2-yl)methyl)amino)phenyl)-N-hyroxyacrylamide]: the half-inhibitory concentration (IC50) is below 1000 nM.

`O=C(/C=C/c1cccnc1NC(=O)c1cccc(C(F)(F)F)c1)NO` [Example I-122]: the IC50 is below 1000 nM.

As to `O=C(/C=C/c1ncccc1NC(=O)c1cccc(C(F)(F)F)c1)NO` [Example I-124, (E)-N-(2-(3-(hydroxyamino)-3-oxoprop-1-en-1-yl)pyridin-3-yl)-3-(trifluoromethyl)benzamide], the IC50 was below 1000 nM.

In the case of `CCCCC(=O)NC1CCN(c2ccccc2/C=C/C(=O)NO)CC1` [Example I-125, (E)-N-(1-(2-(3-(hydroxyamino)-3-oxoprop-1-en-1-yl)phenyl)piperidin-4-yl)pentanamide], the IC50 was below 1000 nM.

As to `O=C(/C=C/c1ccccc1N1CCC(NC(=O)C2CCCCC2)CC1)NO` [Example I-126, (E)-N-(1-(2-(3-(hydroxyamino)-3-oxoprop-1-en-1-yl)phenyl)piperidin-4-yl)cyclohexanecarboxamide], the IC50 is below 1000 nM.

Turning to `CS(=O)(=O)N1CCCC(C(=O)NC2CCN(c3ccccc3/C=C/C(=O)NO)CC2)C1` (stereo not shown) [Example I-127], the IC50 was below 1000 nM.

As to `O=C(/C=C/c1ccccc1N1CCC(NC(=O)Cc2cccs2)CC1)NO` [Example I-128, (E)-N-hydroxy-3-(2-(4-(2-(thiophen-2-yl)acetamido)piperidin-1-yl)phenyl)acrylamide], the IC50 is below 1000 nM.

On to `O=C(/C=C/c1ccccc1N1CCC(NC(=O)CSc2ccc(F)cc2)CC1)NO` [Example I-129, (E)-3-(2-(4-(2-((4-fluorophenyl)thio)acet-amido)piperidin-1-yl)phenyl)-N-hydroxyacrylamide], for which the IC50 is below 1000 nM.

Consider `O=C(/C=C/c1ccccc1N1CCC(NC(=O)CCC(F)(F)F)CC1)NO` [Example I-130, (E)-4,4,4-trifluoro-N-(1-(2-(3-(hydroxyamino)-3-oxoprop-1-en-1-yl)phenyl)piperidin-4-yl)butanamide], for which the IC50 is below 1000 nM.

As to `CCSCC(=O)NC1CCN(c2ccccc2/C=C/C(=O)NO)CC1` [Example I-131], the IC50 was below 1000 nM.

`O=C(/C=C/c1ccccc1N1CCC(NC(=O)c2cccnc2)CC1)NO` [Example I-132]: the IC50 is below 1000 nM.

Take `CNc1ccc(C(=O)NC2CCN(c3ccccc3/C=C/C(=O)NO)CC2)cc1` [Example I-133, (E)-N-(1-(2-(3-(hydroxyamino)-3-oxoprop-1-en-1-yl)phenyl)piperidin-4-yl)-4-(methylamino)benzamide]: the IC50 was below 1000 nM.

As to `CS(=O)(=O)N1CCC(CC(=O)NC2CCN(c3ccccc3/C=C/C(=O)NO)CC2)CC1` [Example I-135, (E)-N-hydroxy-3-(2-(4-(2-(1-(methylsulfonyl)piperidin-4-yl)acetamido)piperidin-1-yl)phenyl)acrylamide], the half-inhibitory concentration (IC50) is below 1000 nM.

On to `CS(=O)(=O)CCCC(=O)NC1CCN(c2ccccc2/C=C/C(=O)NO)CC1` [Example I-136, (E)-N-(1-(2-(3-(hydroxyamino)-3-oxoprop-1-en-1-yl)phenyl)piperidin-4-yl)-4-(methylsulfonyl)butan-amide], for which the IC50 was below 1000 nM.

Regarding `O=C(/C=C/c1ccccc1N1CCC(NC(=O)CCN2CCCC2=O)CC1)NO` [Example I-137, (E)-N-hydroxy-3-(2-(4-(3-(2-oxopyrrolidin-1-yl)propanamido)piperidin-1-yl)phenyl)acrylamide], the IC50 is below 1000 nM.

Consider `O=C(/C=C/c1ccccc1N1CCC(NC(=O)CN2CCS(=O)(=O)CC2)CC1)NO` [Example I-138, (E)-3-(2-(4-(2-(1,1-dioxidothiomorpholino)acetamido)piperidin-1-yl)phenyl)-N-hydroxyacrylamide], for which the half-maximal inhibitory concentration (IC50) was below 1000 nM.

Regarding `COc1cc(CC(=O)NC2CCN(c3ccccc3/C=C/C(=O)NO)CC2)ccc1O` [Example I-139, (E)-N-hydroxy-3-(2-(4-(2-(4-hydroxy-3-methoxyphenyl)acetami-do)piperidin-1-yl)phenyl)acrylamide], the IC50 was below 1000 nM.

As to `O=C(/C=C/c1ccccc1N1CCC(NC(=O)C2Cc3ccccc3C2)CC1)NO` [Example I-140, (E)-N-(1-(2-(3-(hydroxyamino)-3-oxoprop-1-en-1-yl)phenyl)piperidin-4-yl)-2,3-dihydro-1H-indene-2-carboxamide], the IC50 was below 1000 nM.

Take `Cc1ccccc1Oc1ncccc1C(=O)NC1CCN(c2ccccc2/C=C/C(=O)NO)CC1` [Example I-141, (E)-N-(1-(2-(3-(hydroxyamino)-3-oxoprop-1-en-1-yl)phenyl)piperdin-4-yl)-2-(o-tolyloxy)nicotinamide]: the IC50 was below 1000 nM.

`O=C(/C=C/c1ccccc1N1CCC(NC(=O)C2CCC(F)(F)CC2)CC1)NO` [Example I-142, (E)-4,4-difluoro-N-(1-(2-(3-(hydroxyamino)-3-oxoprop-1-en-1-yl)phenyl)piperidin-4-yl)cyclohexane-1-carboxamide]: the IC50 is below 1000 nM.
